For four compounds, IC50 and DC50 results are on record in publication doi:10.1101/2023.10.24.563163v2, “Targeting cancer with small molecule pan-KRAS degraders” (biorxiv, 2024).

The structures appear in SMILES notation. Read-outs that look alike come from different tables or passages of the source.

Experiment [1] has as its system GP2d. The experiment can be described thus: cells. Also noted: Inhibition of cell proliferation, 5 days. The note with it: 120 h, read-out: IC50 Proliferation GP2d. From the text:
(§1) Next, we set out to test the ability of a single pan-KRAS degrading molecule, compound 4, to selectively suppress oncogenic signaling and proliferation in cancer cell lines driven by diverse KRAS mutants. To this end, we first confirmed degradation of KRAS by compound 4 in KRAS-dependent (GP2d, SW620 and NCI-H358 expressing KRAS^G12D, - G12V or -G12C, respectively) as well as in KRAS independent (A-375, HEK293) cell lines (Fig. 3A, fig. S4A). […] Both inhibition and degradation repressed the established markers of MAPK signaling pERK (fig. S4B-D) and DUSP6 (Fig. 3B, fig. S4E) in KRAS dependent cell lines. […] Neither degradation nor inhibition had appreciable antiproliferative effects in the KRAS independent cell lines A-375 and HEK293 (Fig. 3C, fig. S4F). […] Pan-KRAS degradation impacts MAPK signaling and cancer cell proliferation.

Experiment [2] has as its system SW620. The experiment can be described thus: cells. Also noted: Inhibition of cell proliferation, 5 days. The settings on record: Homo sapiens, SW-620, 120 h; read-out: IC50 Proliferation SW620.
Text: as §1

For another experiment, the system named is A375. The experiment can be described thus: cells. Also noted: pERK levels by capillary electrophoresis. The settings on record: Homo sapiens, A-375, 6 h. How it is done: (§2) Protein Detection by Capillary Electrophoresis Cells (50 000) were seeded the day before treatment into 96-well clear-flat bottom plates and incubated overnight (37 °C, humidified tissue culture incubator, 5% CO2). Compounds were added from DMSO stock solution using a digital dispenser and cells are incubated at 37 °C as specified (24 hours for KRAS degradation, 6 hours for determination of pERK levels). At the end of the incubation, medium was removed, cells washed with ice cold PBS, PBS removed and 50 µL lysis buffer (Meso Scale Discovery #R60TX-2) supplemented with 1:100 protease inhibitor solution, 1:100 phosphatase inhibitor I, 1:100 phosphatase inhibitor II (Meso Scale Discovery #R70AA-1), 0.5 µL/mL Benzonase (Novagen #70664-3) and 10 mM dithiothreitol added to each well. Plates with lysis buffer were immediately transferred to -80 °C freezer for at least 2 hours and then thawed on ice. Lysates were transferred to a 96 well V-bottom plate and insoluble debris was pelleted by centrifugation for 20 min. at 4 000 rpm. 40 µL of the supernatant were transferred to a fresh Eppendorf PCR plate. Analysis of protein levels was conducted using the Wes System, ProteinSimple (https://www.bio-techne.com/) as specified by the manufacturer. Briefly, Wes Master Mix (12-230 kDa WES Separation Module, 8 × 25 capillary cartridges, ProteinSimple #SM-W004) and molecular weight markers were prepared as specified in the manufacturer’s recommendations. To detect primary antibodies, anti-rabbit (Protein Simple #DM-001) or anti-mouse (Protein Simple #DM-002) detection modules were used. 7.2 µL lysate + 1.8 µL master mix were combined and heated to 95 °C for 5 min. Th

In a further experiment the test system is HEK293. The experiment can be described thus: cells. Also noted: pERK levels by capillary electrophoresis. The settings on record: Homo sapiens, HEK293, 6 h. How it is done:
as §2

The test system of experiment [3] is NCI-H358. The experiment can be described thus: cells. Also noted: pERK levels by capillary electrophoresis. The note with it: Homo sapiens, NCI-H358, 6 h. The method, then:
as §2

Experiment [4] deals with SW620. The experiment can be described thus: cells. Also noted: pERK levels by capillary electrophoresis. The settings on record: Homo sapiens, SW-620, 6 h. The method, then: as §2
Experiment [5] has as its system GP2d. The experiment can be described thus: cells. Also noted: DUSP6 modulation. The settings on record: GP2d, 6 h; read-out: IC50 DUSP6. From the text: (§3) Next, we set out to test the ability of a single pan-KRAS degrading molecule, compound 4, to selectively suppress oncogenic signaling and proliferation in cancer cell lines driven by diverse KRAS mutants. To this end, we first confirmed degradation of KRAS by compound 4 in KRAS-dependent (GP2d, SW620 and NCI-H358 expressing KRAS^G12D, - G12V or -G12C, respectively) as well as in KRAS independent (A-375, HEK293) cell lines (Fig. 3A, fig. S4A). […] Both inhibition and degradation repressed the established markers of MAPK signaling pERK (fig. S4B-D) and DUSP6 (Fig. 3B, fig. S4E) in KRAS dependent cell lines. […] Neither degradation nor inhibition had appreciable antiproliferative effects in the KRAS independent cell lines A-375 and HEK293 (Fig. 3C, fig. S4F).

Experiment [6] concerns NCI-H358. The experiment can be described thus: cells. Also noted: DUSP6 modulation. The note with it: Homo sapiens, NCI-H358, 6 h; read-out: IC50 DUSP6.
Text: as §3

For experiment [7], the system named is SW620. The experiment can be described thus: cells. The note with it: Homo sapiens, SW-620, 6 h; read-out: IC50 DUSP6. Also noted: DUSP6 modulation.
Text: as §3

A further experiment concerns the target KRAS^G12D (Homo sapiens, UniProt P01116, G12D). Also noted: endogenous; KRAS degradation by capillary electrophoresis immunodetection. The settings on record: read-out: DC50 24 h GP2d.

Sequence of KRAS^G12D (P01116 whole entry G12D): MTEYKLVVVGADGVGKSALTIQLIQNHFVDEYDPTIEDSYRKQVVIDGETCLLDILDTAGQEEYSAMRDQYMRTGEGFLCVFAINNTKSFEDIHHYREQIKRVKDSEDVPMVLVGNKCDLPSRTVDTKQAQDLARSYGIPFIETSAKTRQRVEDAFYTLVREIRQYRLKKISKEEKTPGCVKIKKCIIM

Usually DC50 stands for the concentration at which degradation of the target reaches its halfway point. Turning to `Cc1ncsc1-c1ccc(CNC(=O)[C@@H]2C[C@@H](O)CN2C(=O)[C@@H](NC(=O)CCCCCN2CCCN(c3nccc(-c4noc([C@@]5(C)CCCc6sc(N)c(C#N)c65)n4)n3)[C@@H](C)C2)C(C)(C)C)cc1` [compound 3], the IC50 with GP2d [1] is 374 nM; in the experiment on SW620 [2], 232 nM; in the experiment with A375, more than 1000 nM; in the experiment with HEK293, more than 1000 nM; with NCI-H358 [3], more than 1000 nM; in the experiment with SW620 [4] it was 708 nM. Besides, the IC50 in the experiment on GP2d [5] amounted to 129 nM; in the experiment on NCI-H358 [6], 248 nM; with SW620 [7], 205 nM. In addition, the 50% degradation concentration (DC50) on KRAS^G12D stood at 76.3 nM.

On to `Cc1ncsc1-c1ccc(CNC(=O)[C@@H]2C[C@@H](O)CN2C(=O)[C@@H](c2cc(OCCCCN3CCCN(c4nccc(-c5noc([C@@]6(C)CCCc7sc(N)c(C#N)c76)n5)n4)[C@@H](C)C3)no2)C(C)C)cc1` [compound 4], for which the IC50 with GP2d [1] is 8.3 nM; with SW620 [2] it was 11 nM; with A375, more than 1000 nM; in the experiment with HEK293, more than 1000 nM; with NCI-H358 [3], 8.2 nM; in the experiment on SW620 [4] it was 9.2 nM. The IC50 came out at 3.3 nM in the experiment with GP2d [5], 11.4 nM with NCI-H358 [6] and 6.2 nM with SW620 [7]. The half-maximal degradation concentration (DC50) at KRAS^G12D is 3.6 nM.

Regarding `Cc1ncsc1-c1ccc(CNC(=O)C2CC(O)CN2C(=O)C(c2cc(OCCCCN3CCCN(c4nccc(-c5noc(C6(C)CCCc7sc(N)c(C#N)c76)n5)n4)C(C)C3)no2)C(C)C)cc1` (stereo not drawn) [compound 5], the IC50 with GP2d [1] is 1740 nM; in the experiment on SW620 [2], 993 nM; in the experiment on A375 it was more than 1000 nM; with HEK293, more than 1000 nM; in the experiment with NCI-H358 [3] it was more than 1000 nM; in the experiment on SW620 [4], more than 1000 nM. Also, the values for the IC50 in the experiment on GP2d [5], in the experiment with NCI-H358 [6] and in the experiment with SW620 [7] were 245 nM, 138 nM and 429 nM, respectively.

Regarding `Cc1ncsc1-c1ccc([C@H](CO)NC(=O)[C@@H]2C[C@@H](O)CN2C(=O)[C@H](C(C)C)n2cc(OCCCCN3CCCN(c4nccc(-c5noc([C@@]6(C)CCCc7sc(N)c(C#N)c76)n5)n4)[C@@H](C)C3)nn2)cc1` [compound 7, ACBI3], the DC50 at KRAS^G12D was found to be 3.9 nM.
